# Laboratory results published in patent US10336759B2, “Salts and processes of preparing a PI3K inhibitor” (Incyte Corporation, priority 2015, dated 2019).
# What was measured:
# Format in all cases: biochemical
# PI3Kα = PI3Kα (Homo sapiens (Human), UniProt P42336); assay: PI3K Enzyme Assay (Example A2), PI3Kα; settings: assay of Example A2, 1000 μM ATP
# Experimental: (§1) PI3K isoforms α, β, δ and γ are purchased from Millipore (Bedford, Mass.).
# (§2) The kinase reactions are conducted in clear-bottom 96-well plate from Thermo Fisher Scientific in a final volume of 24 μL. Inhibitors are first diluted serially in DMSO and added to the plate wells before the addition of other reaction components. The final concentration of DMSO in the assay is 0.5%. […] The reaction mixture is prepared containing 50 μM PIP2, kinase and varying concentration of inhibitors. […] Reactions are incubated for 180 minutes and terminated by the addition of 100 μL of 1 M potassium phosphate pH 8.0, 30 mM EDTA quench buffer. A 100 μL aliquot of the reaction solution are then transferred to 96-well Millipore MultiScreen IP 0.45 μm PVDF filter plate (The filter plate is prewetted with 200 μL 100% ethanol, distilled water, and 1 M potassium phosphate pH 8.0, respectively). […] After drying by aspiration and blotting, the plate is air dried in an incubator at 37° C. overnight. Packard TopCount adapter (Millipore) is then attached to the plate followed with addition of 120 μL Microscint 20 scintillation cocktail (Perkin Elmer) in each well. After the plate sealing, the radioactivity of the product is determined by scintillation counting on Topcount (Perkin-Elmer). […]
# PI3Kδ = PI3Kδ (Homo sapiens (Human), UniProt O00329); assay: PI3K Enzyme Assay (Example A2), PI3Kδ; settings: assay of Example A2, 1000 μM ATP
# Experimental: as §1, §2
# PI3Kγ = PI3Kγ (Homo sapiens (Human), UniProt P48736); assay: PI3K Enzyme Assay (Example A2), PI3Kγ; settings: assay of Example A2, 1000 μM ATP
# Experimental: as §1, §2
# PI3Kβ = PI3Kβ (Homo sapiens (Human), UniProt P42338); assay: PI3K Enzyme Assay (Example A2), PI3Kβ; settings: assay of Example A2, 1000 μM ATP
# Experimental: as §1, §2
# JAK2 = JAK2 (Homo sapiens (Human), UniProt O60674); assay: Assay A, JAK2 versus JAK1 (ratio); settings: ratio of IC50s, Assay A at 1 mM ATP
# JAK2, sequence (O60674 whole entry, species assumed): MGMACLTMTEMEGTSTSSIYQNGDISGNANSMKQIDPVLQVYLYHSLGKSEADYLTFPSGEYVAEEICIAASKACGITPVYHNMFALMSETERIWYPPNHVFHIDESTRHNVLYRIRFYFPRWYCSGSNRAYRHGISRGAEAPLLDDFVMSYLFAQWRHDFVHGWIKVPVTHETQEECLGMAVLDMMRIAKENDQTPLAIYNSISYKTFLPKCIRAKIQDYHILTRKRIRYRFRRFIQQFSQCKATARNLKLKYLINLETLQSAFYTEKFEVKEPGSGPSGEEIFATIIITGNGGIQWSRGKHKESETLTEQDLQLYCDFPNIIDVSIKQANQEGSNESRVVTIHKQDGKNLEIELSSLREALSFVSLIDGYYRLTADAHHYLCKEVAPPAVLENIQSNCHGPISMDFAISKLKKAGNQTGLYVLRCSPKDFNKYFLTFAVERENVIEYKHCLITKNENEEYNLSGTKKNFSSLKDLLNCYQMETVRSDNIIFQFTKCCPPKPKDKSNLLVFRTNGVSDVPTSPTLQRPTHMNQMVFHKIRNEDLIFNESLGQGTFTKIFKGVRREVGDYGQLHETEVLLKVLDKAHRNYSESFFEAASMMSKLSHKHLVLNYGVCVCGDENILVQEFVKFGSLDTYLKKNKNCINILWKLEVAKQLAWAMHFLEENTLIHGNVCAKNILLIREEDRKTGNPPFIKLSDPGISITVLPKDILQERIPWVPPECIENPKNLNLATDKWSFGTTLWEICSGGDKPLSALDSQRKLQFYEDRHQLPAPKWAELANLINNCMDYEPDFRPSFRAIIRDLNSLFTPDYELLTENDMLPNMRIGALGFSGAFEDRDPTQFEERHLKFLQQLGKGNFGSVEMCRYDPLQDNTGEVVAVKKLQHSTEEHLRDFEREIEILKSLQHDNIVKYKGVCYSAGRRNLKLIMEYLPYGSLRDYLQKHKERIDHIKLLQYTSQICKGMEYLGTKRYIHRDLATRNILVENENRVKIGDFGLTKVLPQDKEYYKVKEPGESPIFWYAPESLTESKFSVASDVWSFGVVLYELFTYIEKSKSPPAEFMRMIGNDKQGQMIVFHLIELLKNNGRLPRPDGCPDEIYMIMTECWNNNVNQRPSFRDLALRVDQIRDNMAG
# JAK1 = JAK1 (Homo sapiens (Human), UniProt P23458); assay: Assay A, JAK1 IC50 at 1 mM ATP; settings: method of Assay A at 1 mM ATP; #3 data for enantiomer 1, #14 data for enantiomer 2
# JAK1, sequence (P23458 whole entry, species assumed): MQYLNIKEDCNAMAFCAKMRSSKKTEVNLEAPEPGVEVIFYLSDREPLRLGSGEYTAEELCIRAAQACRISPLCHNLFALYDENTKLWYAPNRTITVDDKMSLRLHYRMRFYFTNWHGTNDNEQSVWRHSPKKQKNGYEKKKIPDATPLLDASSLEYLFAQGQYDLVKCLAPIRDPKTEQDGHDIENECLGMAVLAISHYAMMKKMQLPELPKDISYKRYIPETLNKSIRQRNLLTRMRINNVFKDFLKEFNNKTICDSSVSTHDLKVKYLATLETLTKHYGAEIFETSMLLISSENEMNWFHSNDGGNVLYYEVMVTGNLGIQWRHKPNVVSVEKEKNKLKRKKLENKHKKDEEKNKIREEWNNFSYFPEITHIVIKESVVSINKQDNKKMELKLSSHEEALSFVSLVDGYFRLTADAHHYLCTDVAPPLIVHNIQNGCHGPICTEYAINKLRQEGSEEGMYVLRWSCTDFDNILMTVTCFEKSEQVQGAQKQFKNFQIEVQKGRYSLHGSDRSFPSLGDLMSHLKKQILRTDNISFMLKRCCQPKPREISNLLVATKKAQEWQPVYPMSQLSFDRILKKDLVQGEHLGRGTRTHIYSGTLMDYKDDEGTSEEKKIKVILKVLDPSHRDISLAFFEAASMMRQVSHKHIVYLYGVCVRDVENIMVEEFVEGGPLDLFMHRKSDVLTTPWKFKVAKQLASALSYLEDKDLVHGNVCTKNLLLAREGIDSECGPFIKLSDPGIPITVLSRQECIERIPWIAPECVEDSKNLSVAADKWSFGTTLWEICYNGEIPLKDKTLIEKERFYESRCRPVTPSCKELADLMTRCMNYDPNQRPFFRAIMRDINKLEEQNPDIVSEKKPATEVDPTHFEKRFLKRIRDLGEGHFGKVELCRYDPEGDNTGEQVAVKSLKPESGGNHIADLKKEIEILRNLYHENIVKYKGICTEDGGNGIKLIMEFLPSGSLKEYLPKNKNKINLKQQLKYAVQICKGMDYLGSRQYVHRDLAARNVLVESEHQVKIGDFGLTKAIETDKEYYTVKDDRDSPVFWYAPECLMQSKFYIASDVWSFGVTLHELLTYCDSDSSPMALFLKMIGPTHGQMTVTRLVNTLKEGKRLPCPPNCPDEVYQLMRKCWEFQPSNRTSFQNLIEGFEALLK
# PI3Kδ (p110δ/p85α) = PI3Kδ (p110δ/p85α) (Homo sapiens (Human), UniProt O00329); assay: PI3Kδ Scintillation Proximity Assay (Example A3); settings: assay of Example A3, 20 μM ATP, 20 μM PIP2
# Experimental: The kinase reaction was conducted in polystyrene 384-well matrix white plate from Thermo Fisher Scientific in a final volume of 25 μL. Inhibitors were first diluted serially in DMSO and added to the plate wells before the addition of other reaction components. The final concentration of DMSO in the assay was 0.5%. The PI3K assays were carried out at room temperature in 20 mM MOPS, pH 6.7, 10 mM MgCl2, 5 mM DTT and CHAPS 0.03%. […] IC50 determination was performed by fitting the curve of percent control activity versus the log of the inhibitor concentration using the GraphPad Prism 3.0 software.
# PI3Kα, sequence (P42336 whole entry, canonical isoform): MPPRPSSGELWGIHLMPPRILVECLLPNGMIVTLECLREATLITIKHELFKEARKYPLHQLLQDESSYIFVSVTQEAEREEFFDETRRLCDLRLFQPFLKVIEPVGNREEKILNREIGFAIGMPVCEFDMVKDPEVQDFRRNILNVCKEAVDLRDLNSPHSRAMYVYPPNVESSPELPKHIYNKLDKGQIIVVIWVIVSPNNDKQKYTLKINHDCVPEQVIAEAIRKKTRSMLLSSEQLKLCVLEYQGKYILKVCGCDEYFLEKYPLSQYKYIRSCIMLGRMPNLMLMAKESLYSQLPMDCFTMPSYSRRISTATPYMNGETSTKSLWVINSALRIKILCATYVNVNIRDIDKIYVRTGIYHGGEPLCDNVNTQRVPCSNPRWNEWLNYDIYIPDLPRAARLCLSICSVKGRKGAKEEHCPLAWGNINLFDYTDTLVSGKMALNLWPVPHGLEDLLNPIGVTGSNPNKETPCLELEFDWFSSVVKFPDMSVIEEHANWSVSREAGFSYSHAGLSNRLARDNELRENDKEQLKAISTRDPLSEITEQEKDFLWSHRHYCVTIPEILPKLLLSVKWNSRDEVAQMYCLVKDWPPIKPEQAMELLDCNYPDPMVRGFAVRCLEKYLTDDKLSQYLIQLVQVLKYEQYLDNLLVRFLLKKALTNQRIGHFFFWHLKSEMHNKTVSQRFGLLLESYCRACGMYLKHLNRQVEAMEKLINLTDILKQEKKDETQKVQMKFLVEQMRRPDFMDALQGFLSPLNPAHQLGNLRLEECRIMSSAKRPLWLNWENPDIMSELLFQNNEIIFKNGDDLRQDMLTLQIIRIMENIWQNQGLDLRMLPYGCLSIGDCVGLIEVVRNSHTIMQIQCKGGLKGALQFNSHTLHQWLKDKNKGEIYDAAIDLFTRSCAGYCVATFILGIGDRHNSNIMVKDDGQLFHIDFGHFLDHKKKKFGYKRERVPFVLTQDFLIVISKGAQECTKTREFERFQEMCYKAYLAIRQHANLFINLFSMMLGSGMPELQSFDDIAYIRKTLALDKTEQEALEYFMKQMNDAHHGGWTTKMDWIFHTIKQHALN
# PI3Kα, sequence (P27986 whole entry partner, canonical isoform): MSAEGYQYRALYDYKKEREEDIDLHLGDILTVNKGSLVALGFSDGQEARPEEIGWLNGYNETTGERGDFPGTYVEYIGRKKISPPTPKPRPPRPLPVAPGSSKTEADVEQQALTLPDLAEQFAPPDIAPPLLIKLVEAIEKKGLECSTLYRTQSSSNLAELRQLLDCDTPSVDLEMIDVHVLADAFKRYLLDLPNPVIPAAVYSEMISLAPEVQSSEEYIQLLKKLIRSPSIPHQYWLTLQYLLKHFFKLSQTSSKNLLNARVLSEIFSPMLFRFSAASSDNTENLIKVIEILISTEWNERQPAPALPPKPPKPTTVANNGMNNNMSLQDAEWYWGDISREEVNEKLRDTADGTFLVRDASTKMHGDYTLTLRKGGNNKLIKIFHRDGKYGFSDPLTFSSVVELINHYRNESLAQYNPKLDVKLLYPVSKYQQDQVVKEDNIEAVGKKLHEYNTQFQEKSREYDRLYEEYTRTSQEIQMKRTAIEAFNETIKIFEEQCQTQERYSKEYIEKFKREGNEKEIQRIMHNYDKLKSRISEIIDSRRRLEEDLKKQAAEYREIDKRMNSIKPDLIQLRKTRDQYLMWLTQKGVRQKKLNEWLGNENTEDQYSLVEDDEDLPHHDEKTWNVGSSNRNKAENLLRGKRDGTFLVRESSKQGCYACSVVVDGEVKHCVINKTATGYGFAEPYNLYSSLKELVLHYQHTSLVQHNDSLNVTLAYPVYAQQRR
SMILES,JAK2/JAK1 (JAK2),IC50 (JAK1) [nM],also measured
"CCOc1c([C@H](C)n2nc(C)c3c(N)ncnc32)cc(Cl)c(F)c1[C@@H]1CNC(=O)C1.Cl [(R)-4-(3-((S)-1-(4-amino-3-methyl-1H-pyrazolo[3,4-d]pyrimidin-1-yl)ethyl)-5-chloro-2-ethoxy-6-fluorophenyl)pyrrolidin-2-one hydrochloride]",–,–,fold selectivity for PI3Kδ over PI3Kα (PI3Kα): > 100 fold; selectivity for PI3Kδ (PI3Kδ): selective inhibitor for PI3Kδ; fold selectivity for PI3Kδ over PI3Kγ (PI3Kγ): > 100 fold; fold selectivity for PI3Kδ over PI3Kβ (PI3Kβ): > 100 fold
N#CC[C@]1(n2cc(-c3ncnc4[nH]ccc34)cn2)C[C@H](N2CCC(Oc3cc(CN4CCC[C@H]4CO)cc(C(F)(F)F)n3)CC2)C1 [Example 12],>10,< 10,–
"N#CC[C@]1(n2cc(-c3ncnc4[nH]ccc34)cn2)C[C@H](N2CCN(C(=O)c3ccnc(C(F)(F)F)n3)CC2)C1 [Example 10, [trans-1-[4-(7H-pyrrolo[2,3-d]pyrimidin-4-yl)-1H-pyrazol-1-yl]-3-(4-{[2-(trifluoromethyl)pyrimidin-4-yl]carbonyl}piperazin-1-yl)cyclobutyl]acetonitrile]",>10,< 10,–
"CCOc1c([C@H](C)n2nc(C)c3c(N)ncnc32)cc(Cl)c(F)c1[C@@H]1CNC(=O)C1 [compound of Formula I, (R)-4-(3-((S)-1-(4-amino-3-methyl-1H-pyrazolo[3,4-d]pyrimidin-1-yl)ethyl)-5-chloro-2-ethoxy-6-fluorophenyl)pyrrolidin-2-one]",–,–,IC50 (PI3Kδ (p110δ/p85α)): ≤ 10 nM

# Further lines, with some results ahead:
JAK2/JAK1 (JAK2),IC50 (JAK1) [nM],SMILES,also measured
>10,< 10,"N#CCC1(n2cc(-c3ncnc4[nH]ccc34)cn2)CN([C@H]2CC[C@@H](Oc3cc(CN4CC[C@H](O)C4)cc(C(F)(F)F)n3)CC2)C1 [Example 22, {1-(cis-4-{[4-{[(3S)-3-hydroxypyrrolidin-1-yl]methyl}-6-(trifluoromethyl)pyridin-2-yl]oxy}cyclohexyl)-3-[4-(7H-pyrrolo[2,3-d]pyrimidin-4-yl)-1H-pyrazol-1-yl]azetidin-3-yl}acetonitrile]",–
>10,< 10,"C[C@H](O)CNCc1cc(OC2CCN([C@H]3C[C@](CC#N)(n4cc(-c5ncnc6[nH]ccc56)cn4)C3)CC2)nc(C(F)(F)F)c1 [Example 25, {trans-3-(4-{[4-({[(2S)-2-hydroxypropyl]amino}methyl)-6-(trifluoromethyl)pyridin-2-yl]oxy}piperidin-1-yl)-1-[4-(7H-pyrrolo[2,3-d]pyrimidin-4-yl)-1H-pyrazol-1-yl]cyclobutyl}acetonitrile]",–
